From patent publication US20090041862A1, “Detecting disease association with aberrant glycogen synthase kinase 3beta expression” (priority 2004, published 2009)

Legend:
[1] = target: Tau (endogenous Tau protein in COS-7 cells); test: cell-based or functional assay
[2] = tested on: GSKΔexon9+11; test: Inhibition of endogenous Tau [pS396] phosphorylation in COS-7 cells transfected with GSKΔexon9+11 cDNA (ELISA); assay type: cell-based, human
Method: Lymphocytes (as described in Example 3) or transfected cells were lysed in 1× Lysis buffer (50 mM Tris.HCl (pH 7.4), 150 mM NaCl, 1 mM PMSF, 1× complete cocktail protease inhibitor (Boehringer Mannheim) and 0.05% Triton X-100. Approximately 2-25 μg of total protein was used to assay for total Tau or Tau phosphorylated at serine residue 396 using the Human Tau or Human Tau [pS396] ELISA kit respectively (Biosource International, CA, USA).
COS-7 cells plated onto 12 well plates at concentration of 1×10^5 cells/well and allowed to recover for 24 hours. Each well was transfected with either the GSKΔexon9 or GSKΔexon9+11 cDNA constructs (as described in Example 4) using Lipofectamine 2000.

| Compound | levels of Tau [pSer396] by ELISA in COS-7 cells transfected with GSK-3β isoform cDNAs [1] [fold] | increase in sensitivity of GSKΔexon9+11 compared with GSKΔexon9 ([2]; ratio of IC50 values, COS-7 cells) [fold] | suppressing the level of tau phosphorylation in a cell expressing GSK-3β lacking exon 9 and exon 11 vs lacking exon 9 ([2]; result in words) |
| --- | --- | --- | --- |
| GSK-3β lacking exon 9 and exon 11 (GSKΔexon9+11 isoform) (from UniProt P49841 1-420) | 2.5 | – | – |
| Cn1sc(=O)n(Cc2ccccc2)c1=O [TDZD8] | – | 2 | at a level greater than observed in a cell expressing GSK-3β lacking exon 9 |
